Test results published in patent US7981512B2, “Organic polymer-magnetic particles and process for producing same” (JSR Corporation, priority 2006, dated 2011).

Conditions: distilled water
Protocol: In the invention, the solubility in water at 25° C. of the monomer is determined by slowly adding the monomer in question to distilled water at 25° C. while stirring until the monomer separates from the water. The amount (% by mass) of the monomer in the solution immediately before separation is defined as the solubility.

Row | Compound | solubility in water at 25° C.
1 | C=C(C)C(=O)OCCOC(=O)c1ccccc1C(=O)O [2-methacryloyloxyethyl phthalate] | less than 0.2 % by mass
2 | C=C(C)C(=O)O [methacrylic acid] | 100 % by mass
